Patent publication US5863918A, “Naphthalene derivatives” (Fujisawa Pharmaceutical Co., Ltd., priority 1994, dated 1999)
Where a name gives a salt, the structure may show the parent alone. Blank lines part the entries; values can stand above or below the compound they belong to.

Legend:
[1] = tested on: human IP receptor; test: Receptor binding assay ([^3 H]-iloprost binding to human IP receptor expressed in COS7); details: test compound 1×10^-6 M; 10 nM [^3 H]-iloprost; 60 minutes, 30° C.
Method: cDNA of human IP receptor was cloned and expressed in COS7 using pCDM8 vector in a similar manner to that described in the literatures [J. Biol. Chem., Vol. 269, No. 16, pp.12173-12178 (1994): Circulation, Vol. 90, No. 4, pp1643-1647 (1994) FEBS Letters 344 (1994) 74-78].
After transfection, cells which expressed human IP receptor were collected with ce l scraper at 4° C. and stored in -80° C.
The composition of assay buffer was as follows: 20 mM MES (pH 6.0), 10 mM MgCl2, 1 mM EDTA, and 0.1 mM PMSF. Frozen cells were thawed and aliquots (4.5×10^5 cells) were incubated for 60 minutes under shaking at 30° C. in plastic tubes in 100 μl of assay buffer with 10 nM of [^3 H]-iloprost in the presence or absence of the test compound (1×10^-6 M).
To determine the non-specific binding, iloprost at 10 μM was added. Each assay was preformed in duplicate. Reaction mixture was filtered through a Whatman GF/C glass filter to stop the reaction. After washing the filter with ice-cold assay buffer, the radioactivity of the filter was countered. Non-specific binding was subtracted from total binding to yield specific binding. The effect of the test compound was expressed as % inhibition of specific [^3 H]-iloprost binding.

[2] = tested on: mean arterial blood pressure in conscious rats; test: Effect on mean arterial blood pressure in conscious rats; assay type: in vivo, rat (male Sprague-Dawley); details: 10 mg/kg; intravenous (femoral vein)
Method: Male Sprague-Dawley rats, aged 8-9 weeks, were anesthetized with ether. A polyethylene cannula filled with heparin solution was inserted into the femoral artery of the rats to measure mean blood pressure. Mean blood pressure was measured with a pressure transducer and recorded on a polygraph. The test compound dissolved in ethanol, polyethylene glycol and distilled water (1:1:1) was administered through a polyethylene cannula inserted into the femoral vein in a volume of 1 ml/kg. Intravenous hypotensive effect of the test compound was expressed as the maximal decrease (R max). Briefly, R max was expressed as maximal % change compared to mean blood pressure prior to the administration of the test compound.

[3] = tested on: human platelet aggregation induced by ADP; test: Inhibition of human platelet aggregation induced by ADP; assay type: cell-based; details: ADP 2.5 μM, platelet rich plasma, mean ± S.E.
Method: Human blood was obtained from healthy volunteers and mixed with 1/10 volume of 3.8% sodium citrate, pH 7.4. The citrate blood was centrifuged at 150×g for 10 minutes and the platelet rich plasma (PRP) was removed. The remaining blood was centrifuged for a further 10 minutes at 1500×g to prepare the platelet poor plasma (PPP), which was used as a reference for platelet aggregation. Aggregation studies were carried out using HEMATRACER 801 (NBS, Japan), a 8 channel aggregometer. 25 μl of sample solution and 225 μl of PRP were mixed and stirred at 1000 rpm for 2 minutes at 37° C. Aggregation was induced by ADP solution at the final concentration of 2.5 μM.

Inhibition (%) of specific [^3 H]-iloprost binding [1]: 96.5%
SMILES: O=C(O)COc1cccc2c1CC[C@](O)(COC(=O)N(c1ccccc1)c1ccccc1)C2 [Sodium salt of (2R)-[5-(carboxymethoxy)-2-hydroxy-1,2,3,4-tetrahydro-2-naphthyl]methyl N,N-diphenylcarbamate]

SMILES: O=C(O)COc1cccc2c1CCC(O)(COC(=O)N(c1ccccc1)c1ccccc1)C2 (stereo not shown) [Test compound (1), Sodium salt of [5-(carboxymethoxy)-2-hydroxy-1,2,3,4-tetrahydro-2-naphthyl]methyl N,N-diphenylcarbamate]
R max (%): maximal decrease (maximal % change compared to mean blood pressure prior to administration) [2]: 27.5%
inhibition at 0.1 µM ([3]; 1.0 × 10^-7 M): 97 ± 1.2%

SMILES: O=C(O)COc1cccc2c1CCC(Cn1nc(C(c3ccccc3)c3ccccc3)ccc1=O)C2 (stereo not shown) [Test compound (2), 2-[(1,2,3,4-Tetrahydro-5-carboxymethoxy-2-naphthyl)methyl]-6-diphenylmethyl-3(2H)-pyridazinone]
inhibition at 1 µM ([3]; 1.0 × 10^-6 M): 100 ± 0.4%
